Structures are written as SMILES.

The experiment concerns the target T1, Retinoid isomerohydrolase (Human, UniProt Q16518).
T1 sequence (Q16518 whole entry): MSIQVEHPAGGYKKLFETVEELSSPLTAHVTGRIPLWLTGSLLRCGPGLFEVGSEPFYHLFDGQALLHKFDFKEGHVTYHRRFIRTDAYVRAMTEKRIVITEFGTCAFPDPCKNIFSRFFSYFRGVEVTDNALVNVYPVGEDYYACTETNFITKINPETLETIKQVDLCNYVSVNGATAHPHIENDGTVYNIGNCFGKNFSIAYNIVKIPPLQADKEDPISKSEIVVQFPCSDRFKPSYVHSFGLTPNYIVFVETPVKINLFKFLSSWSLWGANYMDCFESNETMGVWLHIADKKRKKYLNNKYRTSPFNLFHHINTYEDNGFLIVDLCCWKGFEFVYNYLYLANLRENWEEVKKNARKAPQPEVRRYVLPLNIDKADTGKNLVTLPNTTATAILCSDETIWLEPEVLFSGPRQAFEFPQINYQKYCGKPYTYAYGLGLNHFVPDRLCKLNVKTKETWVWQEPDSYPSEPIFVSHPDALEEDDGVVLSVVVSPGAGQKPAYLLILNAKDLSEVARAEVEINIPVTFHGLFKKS
Briefly: In Vitro Isomerase Inhibition Assay.
In the case of `NCCCc1cccc(OCC2CCCC2)c1` [US10188615, Example 103], the IC50 – broadly, the concentration that inhibits the measured activity by half – was “in the range around 55 nM”.

For `CCCC(CCC)COc1cccc(OCCN)c1` [US10188615, Example 25], the IC50 result is “in the range around 55 nM”. The result for `NCCOc1cccc(OCC2CCCCCCC2)c1` [US10188615, Example 93] reads “in the range around 55 nM”; that for `NCCOc1cccc(OCCCO)c1` [US10188615, Example 95], “in the range around 5500 nM”; that for `NCCOc1cccc(OCC2(O)CCCCC2)c1` [US10188615, Example 26], “in the range around 550 nM”. Next, `NCCOc1cccc(OCc2ccccc2)c1` [US10188615, Example 8]: “in the range around 550 nM”; `COCCOCCOCC(=O)NCCC(O)c1cccc(OCC2CCCCC2)c1` (centres undefined) [US10188615, Example 77]: “in the range around 5500 nM”; `CC(C)CCOc1cccc(OCCN)c1` [US10188615, Example 46]: “in the range around 55 nM”. `COCCCCOc1cccc(OCCN)c1` [US10188615, Example 82]: the IC50 result is “in the range around 550 nM”. The result for `NCCC#Cc1cccc(OCC2CCCCC2)c1` [US10188615, Example 196] reads “in the range around 5500 nM”; that for `NCCC(F)c1cccc(OCC2CCCCC2)c1` (centres undefined) [US10188615, Example 193], “in the range around 55 nM”; that for `COCCOc1cccc(OCCN)c1` [US10188615, Example 113], “in the range around 5500 nM”. The result for `NCCC(O)c1cc(OCC2CCCCC2)ccc1Br` (centres undefined) [US10188615, Example 146] reads “in the range around 5500 nM”; that for `NCCC(O)c1cccc(OCC2CCCCCCC2)c1` (centres undefined) [US10188615, Example 106], “in the range around 55 nM”.

Turning to `COCCCOc1cccc(OCCN)c1` [US10188615, Example 85], the IC50 entry is “in the range around 550 nM”.

On to `C[C@H](CN)[C@H](O)c1cccc(OCC2CCCCC2)c1` [US10188615, Example 76], for which the IC50 entry was “in the range around 5500 nM”.

As for `COc1ccccc1COc1cccc(OCCN)c1` [US10188615, Example 101], the IC50 result is “in the range around 550 nM”.

Take `NCCOc1cccc(OCC2CCCC2)c1` [US10188615, Example 104]: the IC50 entry is “in the range around 55 nM”. For `NCCC(O)c1cccc(OCCCCOCc2ccccc2)c1` (centres undefined) [US10188615, Example 114], the IC50 entry is “in the range around 55 nM”. In the case of `NCC/C(=N\N)c1cccc(OCC2CCCCC2)c1` [US10188615, Example 126], the IC50 entry is “in the range around 550 nM”.

`CN(C)C(=O)CCCOc1cccc(C(O)CCN)c1` (centres undefined) [US10188615, Example 157]: the half-inhibitory concentration (IC50) entry was “in the range around 550 nM”. Next, `NCCOc1cccc(OCC2(O)CCCCCCC2)c1` [US10188615, Example 139]: “in the range around 550 nM”; `CCC(O)(CC)COc1cccc(OCCN)c1` [US10188615, Example 31]: “in the range around 550 nM”; `N=C(N)CC(O)c1cccc(OCC2CCCCC2)c1` (centres undefined) [US10188615, Example 130]: “in the range around 55 nM”. Next, `CC(C)C(O)COc1cccc(C(O)CCN)c1` (centres undefined) [US10188615, Example 158]: “in the range around 55 nM”; `NCCCc1cc(F)cc(OCC2CCCCC2)c1` [US10188615, Example 168]: “in the range around 550 nM”. The result for `CC(CCN)c1cccc(OCC2CCCCC2)c1` (centres undefined) [US10188615, Example 81] reads “in the range around 55 nM”; that for `NCCC(O)c1cccc(OCC2CCCCO2)c1` (centres undefined) [US10188615, Example 83], “in the range around 55 nM”; that for `CC(C)C(O)COc1cccc(OCCN)c1` (centres undefined) [US10188615, Example 153], “in the range around 550 nM”.

These data come from BindingDB's records for patent US10188615 (ACUCELA INC., 2019).
